Here are results for three compounds from patent EP3020415A1, “Thiol compounds for use in bacterial infections” (Université de Fribourg, priority 2014, dated 2016).

Molecules are shown by their SMILES. Values joined by “and” are separate entries in the source; they are usually repeats but may differ in a detail not shown here. Equal entries are not always repeated. Where two headings read alike, the source gives them in different places.

The target of one data set is NDM-4 (Escherichia coli, UniProt H6WZS9). As to the kind of experiment: In-vitro inhibition of purified metallo-ß-lactamase, UV spectrophotometry.
Another data set concerns the target VIM-1 (Pseudomonas aeruginosa, UniProt A0A0F7KYQ8). As to the kind of experiment: biochemical.
A further data set deals with KPC-3 (Klebsiella pneumoniae, UniProt Q9F663, H272Y). As to the kind of experiment: In-vitro inhibition of purified enzyme, non-metallo-enzyme negative control.
Another data set deals with NDM-1 (Klebsiella pneumoniae, UniProt C7C422). Briefly: biochemical.
Another data set addresses IMP-1 (Serratia marcescens, UniProt P52699). Briefly: biochemical.
In data set [1] the test system is E. coli TOP10 pCR2.1-(PNDM-1-blaNDM-1-bleMBL). As to the kind of experiment: Preliminary MIC of imipenem with DMPS, broth microdilution. The following applies: MIC values of imipenem; 0 to 30 mM of DMPS; zinc-complemented M9CA medium; data not shown. The format is cell-based.
The conditions of data set [2]: in vivo, cited from earlier work.
The next data set relates to P. aeruginosa VIM-1. As to the kind of experiment: MIC of carbapenems with or without DMPS. The class given is cell-based. On the procedure: (§1) DMPS was evaluated as inhibitor of MBLs using a panel of strains producing the most clinically significant carbapenemases of the metallo-enzyme group. Minimum inhibitory concentrations (MICs) of carbapenems were determined in-vitro with strains (reference and clinical) producing main types of class B carbapenemases which are IMP, VIM, NDM, GIM and SPM with or without DMPS at various concentrations. […] The studied strains were clinical isolates (to mirror multidrug resistance in clinical isolates) for which a precise ß-lactamase gene content is known (Table 1). The strains were NDM, VIM-, IMP, SPM and GIM and producers as well as control of a non-MBL producer (OXA-48). The selected concentration of DMPS was 1-fold, […] and 30-fold (3 mM) that of the human peak serum concentration after a single IV dose of DMPS (Aposhian,1983).
(§2) A 100 mM DMPS stock solution (Sigma Aldrich, France) (pH 5.0) was prepared in 0.2 M NaOH as recommended (Maiorino et al. 1990) and pH was neutralized to pH 7.0 with NaHCO3 Na2Ca-EDTA (Sigma Aldrich, France) dissolved in water.

The next data set relates to E. cloacae GIM-1. As to the kind of experiment: MIC of carbapenems with or without DMPS. The class given is cell-based. Particulars: Zn 5mg/L. On the procedure:
as §1, §2

The subject of a further data set is A. baumannii NDM-1. As to the kind of experiment: MIC of carbapenems with or without DMPS. The class given is cell-based. On the procedure:
as §1, §2

The next data set has as its system K. pneumoniae VIM-4. As to the kind of experiment: MIC of carbapenems with or without DMPS. The format is cell-based. The following applies: Zn 5mg/L. On the procedure:
as §1, §2

The subject of a further data set is P. putida VIM-2. As to the kind of experiment: MIC of carbapenems with or without DMPS. The format is cell-based. Particulars: Pseudomonas putida, VIM2. The protocol: as §1, §2
In another data set the test system is P. aeruginosa GIM-1. As to the kind of experiment: MIC of carbapenems with or without DMPS. The class given is cell-based. Particulars: Zn 5mg/L. The protocol: as §1, §2
Another data set deals with C. freundii VIM-2. Briefly: MIC of carbapenems with or without DMPS. The class given is cell-based. The following applies: Zn 5mg/L. The protocol: as §1, §2
For a further data set, the system named is E. coli NDM-5. As to the kind of experiment: MIC of carbapenems with or without DMPS. The format is cell-based. Particulars: Zn 5mg/L. On the procedure:
as §1, §2

For a further data set, the system named is K. pneumoniae IMP-8. Briefly: MIC of carbapenems with or without DMPS. The format is cell-based. The following applies: Zn 5mg/L. The protocol:
as §1, §2

The test system of another data set is P. aeruginosa IMP-13. Briefly: MIC of carbapenems with or without DMPS. The format is cell-based. On the procedure: as §1, §2
Another data set deals with P. aeruginosa NDM1. As to the kind of experiment: MIC of carbapenems with or without DMPS. The following applies: carbapenem without DMPS, Zn 5mg/L. The class given is cell-based. On the procedure:
as §1, §2

The next data set relates to A. baumannii IMP-4. As to the kind of experiment: MIC of carbapenems with or without DMPS. Particulars: Acinetobacter baumannii, IMP4, carbapenem without DMPS, Zn 5mg/L. The class given is cell-based. On the procedure: as §1, §2
Another data set relates to E. coli NDM-1. Briefly: MIC of carbapenems with or without DMPS. Particulars: Zn 5mg/L. The class given is cell-based. The protocol:
as §1, §2

The subject of another data set is P. aeruginosa SPM1. Briefly: MIC of carbapenems with or without DMPS. The class given is cell-based. Particulars: Pseudomonas aeruginosa, carbapenem without DMPS, Zn 5mg/L. On the procedure:
as §1, §2

In a further data set the test system is E. coli NDM-4. Briefly: MIC of carbapenems with or without DMPS. The following applies: Zn 5mg/L. The format is cell-based. On the procedure:
as §1, §2

The test system of a further data set is K. pneumoniae NDM-1. As to the kind of experiment: MIC of carbapenems with or without DMPS. The format is cell-based. The following applies: Zn 5mg/L. The protocol: as §1, §2
The test system of a further data set is K. pneumoniae IMP-4. Briefly: MIC of carbapenems with or without DMPS. The format is cell-based. Particulars: Zn 5mg/L. The protocol:
as §1, §2

The test system of the next data set is P. aeruginosa VIM-2. Briefly: MIC of carbapenems with or without DMPS. The format is cell-based. The following applies: Zn 5mg/L. The protocol:
as §1, §2

The test system of the next data set is K. pneumoniae OXA-48. As to the kind of experiment: MIC of carbapenems with or without DMPS (non-MBL control). The class given is cell-based. The following applies: K. pneumoniae OXA-48 (control), carbapenem without DMPS, Zn 5mg/L. The protocol:
as §1, §2

Consider `O=S(=O)([O-])CC(S)CS.[Na+]` (racemic) [DMPS], for which the IC50 against NDM-4 is 110 µM; at VIM-1 it was 180 µM; against KPC-3, above 10000 µM; at NDM-1, 80 µM; on IMP-1, 70 µM. In data set [1], the “maximal inhibition efficiency (DMPS concentration)” value is recorded as 50 mM. In addition, the serum concentration entry in data set [2] (iv) is recorded as “ca. 110 µM”. For the same compound, the elimination result in data set [2] is given as “mostly eliminated by urines”.
On to `C[C@@H](O)[C@H]1C(=O)N2C(C(=O)O)=C(SCCN=CN)C[C@H]12` [IPM, imipenem], for which the MIC in the data set with P. aeruginosa VIM-1 (Pseudomonas aeruginosa, VIM1) was 128 µg/mL; with E. cloacae GIM-1 (Enterobacter cloacae, GIM1, carbapenem without DMPS, read-out: MIC) it was 8 µg/mL; in the data set with A. baumannii NDM-1 (Acinetobacter baumannii, NDM1), 128 µg/mL; with K. pneumoniae VIM-4 (Klebsiella pneumoniae, VIM4, carbapenem without DMPS, read-out: MIC) it was 64 µg/mL; in the data set with P. putida VIM-2, 128 µg/mL; with P. aeruginosa GIM-1 (Pseudomonas aeruginosa, GIM1, carbapenem without DMPS, read-out: MIC), above 1020 µg/mL. Also, the MIC with C. freundii VIM-2 (Citrobacter freundii, VIM2, carbapenem without DMPS, read-out: MIC) is 2 µg/mL; with E. coli NDM-5 (Escherichia coli, NDM5, carbapenem without DMPS, read-out: MIC), 64 µg/mL; with K. pneumoniae IMP-8 (Klebsiella pneumoniae, IMP8, carbapenem without DMPS, read-out: MIC) it was 8 µg/mL; in the data set with P. aeruginosa IMP-13 (Pseudomonas aeruginosa, IMP13), 128 µg/mL; in the data set with P. aeruginosa NDM1 (Pseudomonas aeruginosa, read-out: MIC), 1020 µg/mL; in the data set with A. baumannii IMP-4 it was 64 µg/mL. Also, the MIC stood at 8 µg/mL in the data set on E. coli NDM-1 (Escherichia coli, NDM1, carbapenem without DMPS, read-out: MIC); 1020 µg/mL in the data set with P. aeruginosa SPM1; 64 µg/mL in the data set on E. coli NDM-4 (Escherichia coli, NDM4, carbapenem without DMPS, read-out: MIC); 64 µg/mL with K. pneumoniae NDM-1 (Klebsiella pneumoniae, NDM1, carbapenem without DMPS, read-out: MIC); 16 µg/mL in the data set on K. pneumoniae IMP-4 (Klebsiella pneumoniae, IMP4, carbapenem without DMPS, read-out: MIC); 1020 µg/mL in the data set with P. aeruginosa VIM-2 (Pseudomonas aeruginosa, VIM2, carbapenem without DMPS, read-out: MIC). In the data set with K. pneumoniae OXA-48 (Klebsiella pneumoniae, OXA48, read-out: MIC), the MIC amounted to 32 µg/mL.
Take `C[C@@H](O)[C@H]1C(=O)N2C(C(=O)O)=C(S[C@@H]3CN[C@H](C(=O)N(C)C)C3)[C@H](C)[C@H]12` [MEM, meropenem]: the minimum inhibitory concentration (MIC) is 256 µg/mL with P. aeruginosa VIM-1 (P. aeruginosa VIM-1, carbapenem without DMPS, Zn 5mg/L); 16 µg/mL in the data set with E. cloacae GIM-1 (carbapenem without DMPS); 256 µg/mL in the data set with A. baumannii NDM-1 (A. baumannii NDM-1, carbapenem without DMPS, Zn 5mg/L); 32 µg/mL in the data set on K. pneumoniae VIM-4 (carbapenem without DMPS); 1,024 µg/ml in the data set with P. aeruginosa GIM-1 (carbapenem without DMPS); 0.06 µg/mL with C. freundii VIM-2 (carbapenem without DMPS). The MIC was 64 µg/mL in the data set on E. coli NDM-5 (carbapenem without DMPS); 2 µg/mL with K. pneumoniae IMP-8 (carbapenem without DMPS); 64 µg/mL in the data set with P. aeruginosa IMP-13 (P. aeruginosa IMP-13, carbapenem without DMPS, Zn 5mg/L); 256 µg/mL with P. aeruginosa NDM1; 32 µg/mL and 16 µg/mL in the data set with E. coli NDM-1 (carbapenem without DMPS); 64 µg/mL in the data set with E. coli NDM-4 (carbapenem without DMPS). Moreover, the MIC in the data set with K. pneumoniae NDM-1 (carbapenem without DMPS) is 64 µg/mL; in the data set on K. pneumoniae IMP-4 (carbapenem without DMPS), 16 µg/mL; in the data set with P. aeruginosa VIM-2 (carbapenem without DMPS), 1,024 µg/ml; in the data set with K. pneumoniae OXA-48, 32 µg/mL.
